pIC50: −log10 of the molar value.
Test system: SK-OV-3 multi-cell spheroids, viability
Assay: Anticancer human tumor SK-OV-3 cell line growth inhibition [IpAb];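 on viability, T/C: viability read after seven days of drug exposure; percent of DMSO vehicle control luminescence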
Settings: for pIC50: curve of first compound; for viability, T/C: stronger effect = lower value
In short: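 Multi-cell spheroids of 60% tumour cells, 25% HUVEC and 15% MSC in ultra-low-attachment U-bottom wells, treated with agents combined with ipatasertib or abemaciclib. Half-log ranges top out near clinical Cmax, or 10 microM when Cmax is unknown.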

[1] = second compound 0.01 µM, first compound 0.0316 µM
[2] = second compound 0.01 µM, first compound 0.1 µM
[3] = second compound 0.0316 µM, first compound 0.0316 µM
[4] = second compound 0.0316 µM, first compound 0.1 µM
[5] = second compound 0.1 µM, first compound 0.0316 µM
[6] = second compound 0.1 µM, first compound 0.1 µM
[7] = second compound 0.316 µM, first compound 0.0316 µM
[8] = second compound 0.316 µM, first compound 0.1 µM
[9] = second compound 1 µM, first compound 0.0316 µM
[10] = second compound 1 µM, first compound 0.1 µM

CCCS(=O)(=O)Nc1ccc(F)c(C(=O)c2c[nH]c3ncc(-c4ccc(Cl)cc4)cc23)c1F + CCN1CCN(Cc2ccc(Nc3ncc(F)c(-c4cc(F)c5nc(C)n(C(C)C)c5c4)n3)nc2)CC1
pIC50 (second compound 0.01 µM): 5.03 | pIC50 (second compound 0.0316 µM): 5.29 | pIC50 (second compound 0.1 µM): 5.91 | pIC50 (second compound 0.316 µM): 6.09 | pIC50 (second compound 1 µM): > 7.50 | viability, T/C [1]: 95.1% | viability, T/C [2]: 93.5% | viability, T/C (second compound 0.01 µM, first compound 0.316 µM): 89.1% | viability, T/C (second compound 0.01 µM, first compound 1 µM): 85.5% | viability, T/C (second compound 0.01 µM, first compound 3.16 µM): 80.3% | viability, T/C (second compound 0.01 µM, first compound 10 µM): 48% | viability, T/C [3]: 70.1% | viability, T/C [4]: 69.7% | viability, T/C (second compound 0.0316 µM, first compound 0.316 µM): 70.3% | viability, T/C (second compound 0.0316 µM, first compound 1 µM): 68.1% | viability, T/C (second compound 0.0316 µM, first compound 3.16 µM): 65.3% | viability, T/C (second compound 0.0316 µM, first compound 10 µM): 29.3% | viability, T/C [5]: 55.3% | viability, T/C [6]: 59.5% | viability, T/C (second compound 0.1 µM, first compound 0.316 µM): 57.4% | viability, T/C (second compound 0.1 µM, first compound 1 µM): 51.7% | viability, T/C (second compound 0.1 µM, first compound 3.16 µM): 39.6% | viability, T/C (second compound 0.1 µM, first compound 10 µM): 20.1% | viability, T/C [7]: 53.2% | viability, T/C [8]: 55.7% | viability, T/C (second compound 0.316 µM, first compound 0.316 µM): 52.9% | viability, T/C (second compound 0.316 µM, first compound 1 µM): 46.5% | viability, T/C (second compound 0.316 µM, first compound 3.16 µM): 44.1% | viability, T/C (second compound 0.316 µM, first compound 10 µM): 25.4% | viability, T/C [9]: 41.2% | viability, T/C [10]: 44.4% | viability, T/C (second compound 1 µM, first compound 0.316 µM): 48.1% | viability, T/C (second compound 1 µM, first compound 1 µM): 38.6% | viability, T/C (second compound 1 µM, first compound 3.16 µM): 36.8% | viability, T/C (second compound 1 µM, first compound 10 µM): 24.2%

CC(=O)c1c(C)c2cnc(Nc3ccc(N4CCNCC4)cn3)nc2n(C2CCCC2)c1=O + CC(C)NCC(C(=O)N1CCN(c2ncnc3c2C(C)CC3O)CC1)c1ccc(Cl)cc1
pIC50 (second compound 0.1 µM): 8.01 | pIC50 (second compound 0.316 µM): > 9.02 | pIC50 (second compound 1 µM): > 9.02 | pIC50 (second compound 3.16 µM): > 9.02 | pIC50 (second compound 10 µM): > 9.02 | viability, T/C (second compound 0.1 µM, first compound 0.000949 µM): 70.5% | viability, T/C (second compound 0.1 µM, first compound 0.003 µM): 62.3% | viability, T/C (second compound 0.1 µM, first compound 0.00949 µM): 50.6% | viability, T/C (second compound 0.1 µM, first compound 0.03 µM): 40.2% | viability, T/C (second compound 0.1 µM, first compound 0.0949 µM): 35.8% | viability, T/C (second compound 0.1 µM, first compound 0.3 µM): 34.2% | viability, T/C (second compound 0.316 µM, first compound 0.000949 µM): 36.3% | viability, T/C (second compound 0.316 µM, first compound 0.003 µM): 32.9% | viability, T/C (second compound 0.316 µM, first compound 0.00949 µM): 28% | viability, T/C (second compound 0.316 µM, first compound 0.03 µM): 25.6% | viability, T/C (second compound 0.316 µM, first compound 0.0949 µM): 23.9% | viability, T/C (second compound 0.316 µM, first compound 0.3 µM): 26.2% | viability, T/C (second compound 1 µM, first compound 0.000949 µM): 20.3% | viability, T/C (second compound 1 µM, first compound 0.003 µM): 18.3% | viability, T/C (second compound 1 µM, first compound 0.00949 µM): 17.6% | viability, T/C (second compound 1 µM, first compound 0.03 µM): 14.7% | viability, T/C (second compound 1 µM, first compound 0.0949 µM): 15.9% | viability, T/C (second compound 1 µM, first compound 0.3 µM): 18.5% | viability, T/C (second compound 3.16 µM, first compound 0.000949 µM): 16.5% | viability, T/C (second compound 3.16 µM, first compound 0.003 µM): 14.7% | viability, T/C (second compound 3.16 µM, first compound 0.00949 µM): 14.1% | viability, T/C (second compound 3.16 µM, first compound 0.03 µM): 15.6% | viability, T/C (second compound 3.16 µM, first compound 0.0949 µM): 13.4% | viability, T/C (second compound 3.16 µM, first compound 0.3 µM): 13.5% | viability, T/C (second compound 10 µM, first compound 0.000949 µM): 9.94% | viability, T/C (second compound 10 µM, first compound 0.003 µM): 9.77% | viability, T/C (second compound 10 µM, first compound 0.00949 µM): 8.83% | viability, T/C (second compound 10 µM, first compound 0.03 µM): 8.26% | viability, T/C (second compound 10 µM, first compound 0.0949 µM): 10.6% | viability, T/C (second compound 10 µM, first compound 0.3 µM): 10.5%

CC(C)n1nc(-c2ccc3oc(N)nc3c2)c2c(N)ncnc21 + CCN1CCN(Cc2ccc(Nc3ncc(F)c(-c4cc(F)c5nc(C)n(C(C)C)c5c4)n3)nc2)CC1
pIC50 (second compound 0.01 µM): 8.78 | pIC50 (second compound 0.0316 µM): 8.91 | pIC50 (second compound 0.1 µM): 9.24 | pIC50 (second compound 0.316 µM): 9.42 | pIC50 (second compound 1 µM): > 9.50 | viability, T/C (second compound 0.01 µM, first compound 0.000316 µM): 76.7% | viability, T/C (second compound 0.01 µM, first compound 0.001 µM): 59.3% | viability, T/C (second compound 0.01 µM, first compound 0.00316 µM): 37.8% | viability, T/C (second compound 0.01 µM, first compound 0.01 µM): 19% | viability, T/C [1]: 8.77% | viability, T/C [2]: 7.65% | viability, T/C (second compound 0.0316 µM, first compound 0.000316 µM): 64.4% | viability, T/C (second compound 0.0316 µM, first compound 0.001 µM): 54.8% | viability, T/C (second compound 0.0316 µM, first compound 0.00316 µM): 31.3% | viability, T/C (second compound 0.0316 µM, first compound 0.01 µM): 16.1% | viability, T/C [3]: 11.6% | viability, T/C [4]: 7.01% | viability, T/C (second compound 0.1 µM, first compound 0.000316 µM): 55.4% | viability, T/C (second compound 0.1 µM, first compound 0.001 µM): 45.4% | viability, T/C (second compound 0.1 µM, first compound 0.00316 µM): 28.1% | viability, T/C (second compound 0.1 µM, first compound 0.01 µM): 16% | viability, T/C [5]: 10.8% | viability, T/C [6]: 7.2% | viability, T/C (second compound 0.316 µM, first compound 0.000316 µM): 51.5% | viability, T/C (second compound 0.316 µM, first compound 0.001 µM): 41.4% | viability, T/C (second compound 0.316 µM, first compound 0.00316 µM): 26.2% | viability, T/C (second compound 0.316 µM, first compound 0.01 µM): 18.1% | viability, T/C [7]: 14.3% | viability, T/C [8]: 9.24% | viability, T/C (second compound 1 µM, first compound 0.000316 µM): 40.7% | viability, T/C (second compound 1 µM, first compound 0.001 µM): 34.2% | viability, T/C (second compound 1 µM, first compound 0.00316 µM): 27.9% | viability, T/C (second compound 1 µM, first compound 0.01 µM): 21.2% | viability, T/C [9]: 15.9% | viability, T/C [10]: 13.2%

Source: PubChem BioAssay AID2060325 (Molecular Pharmacology Branch, DTP, NCI, 2025)
